{
  "source": "patent US20100331722A1",
  "about": "“Device and method for assessing operant facial pain” (priority 2004, published 2010)",
  "system": "orofacial inflammatory pain",
  "experiment": "thermal operant orofacial pain test after carrageenan-induced orofacial inflammation",
  "type": "in vivo, Male Sprague Dawley rats",
  "method": "General. Male Sprague Dawley rats (200-300 g, N=18) were lightly anesthetized using isoflurane (1-2.5%, inhalation) and their hair was bilaterally removed (FIG. 1) from the orofacial region using clippers, followed by depilatory cream 1 day prior to behavioral testing. Excess cream was removed with a moistened paper towel to minimize skin irritation. Rats were food fasted for 12-15 hours prior to each testing session and following each session were provided with standard food chow. Animals were tested at the same time of the day and a recovery day from the fasting was included between the testing sessions to minimize nutritional differences from their normal food routine. Water was made available ad libitum before and after testing sessions and animal weight was recorded daily. The animals were then brought into the behavioral procedure room 1 hour prior to testing and allowed to acclimate to the temperature and ambient noise of the room. Animal testing procedures and general handling complied with the ethical guidelines and standards established by the Institutional Animal Care and Use Committee at the University of Florida and all procedures complied with the Guide for Care and Use of Laboratory Animals (Council, 1996).\nThermal Testing. A testing cage (20.3 cm W×20.3 cm D×16.2 cm H) with acrylic walls was constructed with an opening in one wall (4×6 cm) which was lined with grounded metal (aluminum) tubing. The tubing served as a thermode when connected to a water pump (Model RTE110B, NES Laboratories, Inc.) via flexible polyethylene tubing through which heated water (range: 37.7-57.2° C.) was circulated (FIGS. 2A and 2B). A standard rodent watering bottle containing a diluted (1:2 with water) sweetened condensed milk solution (Nestle Carnation Company, room temperature) was mounted outside the cage. The circulating water pump was activated and the appropriate temperature was set prior to testing the animals. The room temperature was maintained at 22±1° C. for all behavioral tests.\nUnrestrained animals were placed separately in a testing cage, and the data acquisition system was activated (WinDaq Lite Data Acq DI-194, DATAQ Instruments, Inc). The bottle was then positioned in proximity to the cage such that the animal was allowed access to the reward bottle when simultaneously contacting the thermode with its face. The metal spout on the watering bottle was connected to a 13-volt DC power supply and, in series, to a multi-channel data acquisition module (WinDaq Lite Data Acq DI-194, DATAQ Instruments, Inc.). When the rat drank from the water bottle, the skin on its shaved face contacted the grounded thermode, and the animal's tongue contacted the metal spout on the water bottle, completing an electrical circuit (FIG. 2A). The bottle position was adjusted horizontally and vertically to facilitate contact of the thermode within the same shaved area of the face for each animal (FIG. 2B). The closed circuit was registered in the computer and data were collected at 60 Hz for the entire length of the experiment. Each spout contact was recorded as a ‘licking’ event. A separate circuit was established from the metal thermode to the animal by grounding the floor with an aluminum sheet for recording of ‘facial contact’ events (FIG. 3). The latter circuit was necessary to determine if the animal made an attempt at the reward bottle but was discouraged by the temperature of the thermode. The duration of each facial contact and the total number of events (licking, facial contact) were recorded. The investigator monitored online data acquisition to ensure that each recorded licking event from the first circuit corresponded to a recorded facial contact on the tubing (the second circuit). […]",
  "key": {"[1]": {"details": "one animal, retested 30 minutes after morphine 0.5 mg/kg s.c., post-inflammation"}},
  "note": "Entries after “also recorded” stand apart in the source; their conditions may differ.",
  "data": [
    {"compound": "CN1CC[C@]23c4c5ccc(O)c4O[C@H]2[C@@H](O)C=C[C@H]3[C@H]1C5", "note": "[morphine]", "values": [
      {"measurement": "effect on inflammatory hyperalgesia (operant outcome measures)", "setting": "morphine 0.5 mg/kg s.c. 30 minutes prior to testing, 2.5 hours post-carrageenan, 45.5° C., N=6", "result": "all but one of these effects was completely reversed; also recorded: completely blocked"},
      {"measurement": "operant outcome measures of morphine-treated inflamed animals versus normal animals", "setting": "morphine-treated animals tested at 45.5° C., all measures except facial contact events", "result": "comparable to normal animals tested at 37.7 °C"},
      {"measurement": "intake (post-morphine)", "setting": "one animal, retested 30 minutes after morphine 0.5 mg/kg s.c., given after the 3 hours post-inflammation trial, 30-minute operant trial", "result": 17.8, "unit": "g"},
      {"measurement": "facial contact duration (post-morphine)", "setting": "[1]", "result": 634, "unit": "s"},
      {"measurement": "facial contacts (post-morphine)", "setting": "[1]", "result": 309},
      {"measurement": "licking events (post-morphine)", "setting": "[1]", "result": 3582},
      {"measurement": "ratio facial duration/facial contact (post-morphine)", "setting": "[1]", "result": 2.05},
      {"measurement": "ratio licking/contact events (post-morphine)", "setting": "[1]", "result": 11.6},
      {"measurement": "operant responses after morphine, pain indices (FIG. 7)", "setting": "single animal, repeated testing following carrageenan, before and after morphine", "result": "analgesic response"}
    ]},
    {"compound": "carrageenan", "values": [
      {"measurement": "effect of carrageenan inflammation on operant outcome measures", "setting": "carrageenan 6 mg s.c. mid-cheek bilaterally, tested 3 hours post-inflammation at 45.5° C., all measures except facial contact events (FIG. 6)", "result": "significant reduction"}
    ]}
  ]
}
